According to patent US20030203944A1, “Novel thiocarbamic acid derivatives and the pharmaceutical compositions containing the same” (priority 2000, published 2003):

How the values were obtained:
Male ICR mice [1] = assay: Antiinflammatory activity test: TPA-induced mouse ear edema test; type: in vivo; details: dose 1 mg/ear topical; ear weight increase 24 h after TPA
Protocol: (4) Antiinflammatory Activity Test: TPA (12-O-tetradecanoylphorbol 13-acetate)-induced Mouse Ear Edema Test
Male ICR mice (body weight 25-30 g), 10 animals/group, were treated topically on the right ear with 30 μl of TPA (2.5 μg) solution in acetone and after 15 min, […] of acetone or test compound solution in acetone was applied topically. After six hours, an identical treatment was applied again. After twenty four hours following the treatment of TPA, the animals were sacrificed and ear tissue was dissected using 6 mm-diameter punch. Ear tissue dissected were weighed to the nearest 0.1 mg on an electrobalance. The increased weight of the tissue compared to control group was considered as an index of inflammation. The percent inhibition is defined by the following equation:
% inhibition=(C−T)/C×100, wherein C and T represent an increase of ear weight in TPA-treated and ThA+drug-treated group, respectively.

Male ICR mice [2] = assay: Analgesic activity test: mouse writhing test by inducing with phenyl-p-quinone; type: in vivo; details: writhes vs control
Protocol: (3) Analgesic Activity Test: Mouse Writhing Test by Inducing with Phenyl-p-quinone
Male ICR mice (mean body weight 25 g) were maintained in a controlled lighting environment (12 h on/12 h off) for experiment. Animals received an intraperitoneal injection of 0.3 ml of the chemical irritant phenyl-p-quinone (dissolved in saline containing 5% ethanol to be a dose of 4.5 mg/kg) and 6 min later, the number of abdominal constrictions was counted in the subsequent 6 min period. Animals (10 animals/group) received 0.2 ml of test compounds solution in vehicle of ethanol/Tween 80/saline (10/10/80) intraperitoneally 30 min before the injection of phenyl-p-quinone. A reduction in the number of writhes responding to the test drug compound relative to the number responding in saline control group was considered to be indicative of an analgesic effect. Analgesic effect was calculated by % inhibition equation (% inhibition=(C−T)/C×100), wherein C and T represent the number of writhes in control and compound-treated group, respectively (Table 2).

[3] = target: T1, cation channel connected to vanilloid receptor (Rattus norvegicus, UniProt O35433); assay: Channel activity assay (patch clamp test); type: cell-based; set-up: key: NR: no response; +: antagonistic potency equal to capsazepine; ++: antagonistic potency 10 times higher than capsazepine; details: potency relative to capsazepine
T1 construct: endogenous in cells
Protocol: (2) Channel Activity Assay
Antagonistic activities of test compounds were assayed based on electrical change of cation channel connected to vanilloid receptor and experiments were conducted according to reference method (Oh et al., 1996, J. Neuroscience 16, pp1659-1667) (Table 1).

[4] = dose 10 mg/kg intraperitoneally 30 min before phenyl-p-quinone

T1 sequence (O35433 whole entry): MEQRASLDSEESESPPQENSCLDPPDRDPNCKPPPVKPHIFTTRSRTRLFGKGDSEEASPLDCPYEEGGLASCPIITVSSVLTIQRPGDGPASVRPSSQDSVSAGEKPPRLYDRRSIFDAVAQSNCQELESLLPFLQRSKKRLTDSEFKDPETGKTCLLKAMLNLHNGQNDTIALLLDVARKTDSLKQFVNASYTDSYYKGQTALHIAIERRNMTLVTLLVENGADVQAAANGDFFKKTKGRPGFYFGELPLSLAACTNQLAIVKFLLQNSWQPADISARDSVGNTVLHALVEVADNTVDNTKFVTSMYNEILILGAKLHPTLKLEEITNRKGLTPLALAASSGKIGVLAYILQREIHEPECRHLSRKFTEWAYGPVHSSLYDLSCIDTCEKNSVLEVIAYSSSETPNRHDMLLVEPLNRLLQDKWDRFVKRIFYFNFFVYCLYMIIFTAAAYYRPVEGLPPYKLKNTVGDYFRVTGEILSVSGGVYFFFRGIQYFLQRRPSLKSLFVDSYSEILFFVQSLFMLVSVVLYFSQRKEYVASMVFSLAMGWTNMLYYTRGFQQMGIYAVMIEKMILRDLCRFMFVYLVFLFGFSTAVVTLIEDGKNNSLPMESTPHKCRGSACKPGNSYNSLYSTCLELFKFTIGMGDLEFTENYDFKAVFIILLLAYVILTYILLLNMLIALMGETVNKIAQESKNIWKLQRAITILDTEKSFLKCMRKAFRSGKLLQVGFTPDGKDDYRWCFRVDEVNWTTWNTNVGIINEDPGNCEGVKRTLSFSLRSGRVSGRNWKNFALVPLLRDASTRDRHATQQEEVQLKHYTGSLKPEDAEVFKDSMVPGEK

Row | Structure (SMILES) | Anti-inflammatory effect (% Inhibition) (Male ICR mice [1]) | Analgesic effect (% Inhibition) (Male ICR mice [2]; [4]) | Patch clamp Test (antagonistic activities) [3] | Analgesic effect (% Inhibition) (Male ICR mice [2]; dose 1 mg/kg intraperitoneally 30 min before phenyl-p-quinone)
1 | COc1cc(CCC(CCc2ccccc2)OC(=S)NCCc2ccccc2)ccc1O (stereo not shown) [Example 5, Phenethyl Thiocarbamic Acid O-[3-(4-hydroxy-3-methoxyphenyl)-1-phenethylpropyl] Ester] | 33% | 44% | + | –
2 | CCC(COc1ccc(NS(C)(=O)=O)c(C(F)(F)F)c1)OC(=S)NCCc1ccccc1 (stereo not shown) [Example 83] | – | – | + | –
3 | COc1cc(CCC(CCc2ccc(C(F)(F)F)cc2)OC(=S)NCCc2ccccc2)ccc1O (stereo not shown) [Example 54] | 40% | 64% | + | –
4 | COc1cc(CCC(C)(C)OC(=S)NCCc2ccccc2)ccc1O [Example 56] | – | – | + | –
5 | COc1cc(OCC2CO2)ccc1O[Si](C)(C)C(C)(C)C (stereo not shown) [Example 60, t-butyl-(2-methoxy-4-oxiranylmethoxy-phenoxy)-dimethyl-silane] | 45% | – | – | 45%
